Source: the Kinase Knowledgebase extract (Sharma et al. 2016)

Biological target: MAPK14 (UniProt Q16539)
Test: Inhibition of MAPK14 Kinase Activity

Chain of MAPK14 (Q16539 whole entry, looked up): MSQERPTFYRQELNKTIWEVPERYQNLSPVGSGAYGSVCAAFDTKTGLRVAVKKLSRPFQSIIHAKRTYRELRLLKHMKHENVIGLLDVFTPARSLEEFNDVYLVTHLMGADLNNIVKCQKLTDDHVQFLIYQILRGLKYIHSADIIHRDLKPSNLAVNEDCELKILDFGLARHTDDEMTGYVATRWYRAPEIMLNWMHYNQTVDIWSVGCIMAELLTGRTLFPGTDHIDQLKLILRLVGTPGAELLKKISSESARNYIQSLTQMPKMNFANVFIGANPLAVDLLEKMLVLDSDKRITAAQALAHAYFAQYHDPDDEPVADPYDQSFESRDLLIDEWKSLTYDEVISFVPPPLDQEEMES

IC50, < 10 µM:
Cc1ccc(C(=O)NC2CC2)cc1-c1ccc2c(CC(=O)NCCO)noc2c1
Cc1c(F)cc(C(=O)NC2CC2)cc1-c1ccc2c(C(=O)N(C)C)noc2c1
Cc1ccc(C(=O)NC2CC2)cc1-c1ccc2c(cnn2CC(=O)N2CCOCC2)c1
Cc1ccc(C(=O)NC2CC2)cc1-c1ccc2nc(NC(=O)C3CC3)sc2c1
CCCNC(=O)Cn1ncc2cc(-c3cc(C(=O)NC4CC4)ccc3C)ccc21
Cc1ccc(C(=O)NC2CC2)cc1-c1ccc2c(CC(=O)N3CCCCC3)noc2c1
Cc1ccc(C(=O)NC2CC2)cc1-c1ccc2c(cnn2CC(=O)NCC(C)(C)C)c1
Cc1ccc(C(=O)NC2CC2)cc1-c1ccc2c(cnn2S(=O)(=O)CC(F)(F)F)c1
COC(=O)Cn1ncc2cc(-c3cc(C(=O)NC4CC4)cc(F)c3C)ccc21
Cc1c(F)cc(C(=O)NC2CC2)cc1-c1ccc2c(cnn2S(=O)(=O)c2cccc(Cl)c2)c1
Cc1ccc(C(=O)NC2CC2)cc1-c1ccc2c(cnn2S(=O)(=O)c2ccc(-c3ccon3)s2)c1
CCCNC(=O)Cn1ncc2cc(-c3cc(C(=O)NC4CC4)cc(F)c3C)ccc21
Cc1ccc(C(=O)NC2CC2)cc1-c1ccc2c(cnn2C2CCNCC2)c1
Cc1noc(C)c1S(=O)(=O)n1ncc2cc(-c3cc(C(=O)NC4CC4)cc(F)c3C)ccc21
Cc1c(F)cc(C(=O)NC2CC2)cc1-c1ccc2c(cnn2S(=O)(=O)c2ccc(F)cc2F)c1
Cc1ccc(C(=O)NC2CC2)cc1-c1ccc2c(cnn2S(=O)(=O)c2cccc3nonc23)c1
Cc1ccc(C(=O)NC2CC2)cc1-c1ccc2c(cnn2C2CCN(C(=O)OC(C)(C)C)CC2)c1
COc1ccc(S(=O)(=O)n2ncc3cc(-c4cc(C(=O)NC5CC5)ccc4C)ccc32)cc1OC
Cc1ccc(C(=O)NC2CC2)cc1-c1ccc2c(cnn2CC(=O)NCc2ccccc2)c1
Cc1ccc(C(=O)NC2CC2)cc1-c1ccc2c(C3CCNCC3)noc2c1
Cc1ccc(C(=O)NC2CC2)cc1-c1ccc2c(cnn2S(=O)(=O)c2cccc(F)c2)c1
Cc1c(F)cc(C(=O)NC2CC2)cc1-c1ccc2c(cnn2S(=O)(=O)C(C)C)c1
Cc1c(F)cc(C(=O)NC2CC2)cc1-c1ccc2c(NC3CC3)noc2c1
Cc1ccc(C(=O)NCC2CC2)cc1-c1ccc2c(C3CCNCC3)noc2c1
CCc1ccc(S(=O)(=O)n2ncc3cc(-c4cc(C(=O)NC5CC5)cc(F)c4C)ccc32)cc1
COC(=O)Cc1noc2cc(-c3cc(C(=O)NC4CC4)ccc3C)ccc12
Cc1ccc(CNC(=O)Cn2ncc3cc(-c4cc(C(=O)NC5CC5)cc(F)c4C)ccc32)cc1
Cc1ccc(F)cc1S(=O)(=O)n1ncc2cc(-c3cc(C(=O)NC4CC4)cc(F)c3C)ccc21
CNC(=O)c1noc2cc(-c3cc(C(=O)NC4CC4)cc(F)c3C)ccc12
CCS(=O)(=O)n1ncc2cc(-c3cc(C(=O)NC4CC4)cc(F)c3C)ccc21
Cc1ccc(C(=O)NC2CC2)cc1-c1ccc2c(cnn2S(=O)(=O)c2cccc(C#N)c2)c1
Cc1ccc(C(=O)NC2CC2)cc1-c1ccc2c(cnn2S(=O)(=O)c2c(C)noc2C)c1
Cc1ccc(C(=O)NC2CC2)cc1-c1ccc2c(cnn2S(=O)(=O)Cc2ccccc2)c1
Cc1c(F)cc(C(=O)NC2CC2)cc1-c1ccc2c(cnn2S(=O)(=O)/C=C/c2ccccc2)c1
Cc1c(F)cc(C(=O)NC2CC2)cc1-c1ccc2c(cnn2S(=O)(=O)Cc2ccccc2)c1
Cc1c(F)cc(C(=O)NC2CC2)cc1-c1ccc2c(cnn2CC(=O)NCC(C)(C)C)c1
Cc1ccc(C(=O)Nc2nccs2)cc1-c1ccc2c(C3CCNCC3)noc2c1
COc1ccc(S(=O)(=O)n2ncc3cc(-c4cc(C(=O)NC5CC5)cc(F)c4C)ccc32)cc1
Cc1ccc(C(=O)NC2CC2)cc1-c1ccc2c(cnn2S(=O)(=O)c2ccc(C(F)(F)F)cc2)c1
Cc1c(F)cc(C(=O)NC2CC2)cc1-c1ccc2c(cnn2CC(=O)NCc2ccccc2)c1
Cc1ccc(C(=O)NC2CC2)cc1-c1ccc2c(cnn2CC(=O)NC(C)C)c1
Cc1c(F)cc(C(=O)NC2CC2)cc1-c1ccc2c(cnn2S(=O)(=O)c2ccccc2Cl)c1
Cc1ccc(C(=O)NC2CC2)cc1-c1ccc2c(CN3CCN(C)CC3)noc2c1
Cc1ccc(C(=O)Nc2cccc(N3CCOCC3)c2)cc1-c1ccc2c(C3CCNCC3)noc2c1
CCCc1ccc(S(=O)(=O)n2ncc3cc(-c4cc(C(=O)NC5CC5)cc(F)c4C)ccc32)cc1
Cc1c(F)cc(C(=O)NC2CC2)cc1-c1ccc2c(cnn2S(=O)(=O)c2ccsc2)c1
CNC(=O)Cc1noc2cc(-c3cc(C(=O)NC4CC4)ccc3C)ccc12
Cc1ccc(C(=O)NC2CC2)cc1-c1ccc2c(CC(=O)N3CCOCC3)noc2c1
Cc1ccc(C(=O)NC2CC2)cc1-c1ccc2[nH]ncc2c1
COC(=O)c1ccc(S(=O)(=O)n2ncc3cc(-c4cc(C(=O)NC5CC5)ccc4C)ccc32)o1
Cc1ccc(C(=O)NC2CC2)cc1-c1ccc2c(CC(=O)N3CCCC3)noc2c1
Cc1c(F)cc(C(=O)NC2CC2)cc1-c1ccc2c(cnn2S(=O)(=O)c2cccc(F)c2)c1
Cc1c(F)cc(C(=O)NC2CC2)cc1-c1ccc2c(ccn2S(=O)(=O)c2ccccc2)c1
Cc1ccc(C(=O)NC2CC2)cc1-c1ccc2c(cnn2CC(=O)NCC2CC2)c1
Cc1ccc(C(=O)NC2CC2)cc1-c1ccc2cn[nH]c2c1
Cc1ccc(C(=O)NC2CC2)cc1-c1ccc2c(CN3CCCCC3)noc2c1
Cc1c(F)cc(C(=O)NC2CC2)cc1-c1ccc2c(S(C)(=O)=O)n[nH]c2c1
Cc1c(F)cc(C(=O)NC2CC2)cc1-c1ccc2c(cnn2S(=O)(=O)c2ccc(F)c(F)c2)c1
Cc1ccc(NC(=O)c2ccnc(N3CCCC3)c2)cc1-c1ccc2c(C3CCNCC3)noc2c1
Cc1ccc(CNC(=O)Cn2ncc3cc(-c4cc(C(=O)NC5CC5)ccc4C)ccc32)cc1
Cc1ccc(C(=O)Nc2ccnc(N3CCCC3)c2)cc1-c1ccc2c(C)noc2c1
Cc1ccc(C(=O)NC2CC2)cc1-c1ccc2c(cnn2S(=O)(=O)c2ccc(F)cc2)c1
Cc1ccc(NC(=O)c2ccoc2)cc1-c1ccc2c(C3CCNCC3)noc2c1
Cc1ccc(C(=O)NC2CC2)cc1-c1ccc2c(C)noc2c1
Cc1ccc(S(=O)(=O)n2ncc3cc(-c4cc(C(=O)NC5CC5)cc(F)c4C)ccc32)cc1
Cc1ccc(C(=O)NC2CC2)cc1-c1ccc2c(CC(=O)Nc3nccs3)noc2c1
CCCCCCCCS(=O)(=O)n1ncc2cc(-c3cc(C(=O)NC4CC4)cc(F)c3C)ccc21
Cc1ccc(C(=O)NC2CC2)cc1-c1ccc2c(cnn2S(=O)(=O)c2ccccc2)c1
Cc1ccc(C(=O)NC2CC2)cc1-c1ccc2c(cnn2S(=O)(=O)c2cn(C)cn2)c1
Cc1c(F)cc(C(=O)NC2CC2)cc1-c1ccc2c(cnn2CC(=O)N2CCOCC2)c1
COc1cccc(S(=O)(=O)n2ncc3cc(-c4cc(C(=O)NC5CC5)cc(F)c4C)ccc32)c1
